Structures are written as SMILES.

Chain of Urease (P07374 whole entry): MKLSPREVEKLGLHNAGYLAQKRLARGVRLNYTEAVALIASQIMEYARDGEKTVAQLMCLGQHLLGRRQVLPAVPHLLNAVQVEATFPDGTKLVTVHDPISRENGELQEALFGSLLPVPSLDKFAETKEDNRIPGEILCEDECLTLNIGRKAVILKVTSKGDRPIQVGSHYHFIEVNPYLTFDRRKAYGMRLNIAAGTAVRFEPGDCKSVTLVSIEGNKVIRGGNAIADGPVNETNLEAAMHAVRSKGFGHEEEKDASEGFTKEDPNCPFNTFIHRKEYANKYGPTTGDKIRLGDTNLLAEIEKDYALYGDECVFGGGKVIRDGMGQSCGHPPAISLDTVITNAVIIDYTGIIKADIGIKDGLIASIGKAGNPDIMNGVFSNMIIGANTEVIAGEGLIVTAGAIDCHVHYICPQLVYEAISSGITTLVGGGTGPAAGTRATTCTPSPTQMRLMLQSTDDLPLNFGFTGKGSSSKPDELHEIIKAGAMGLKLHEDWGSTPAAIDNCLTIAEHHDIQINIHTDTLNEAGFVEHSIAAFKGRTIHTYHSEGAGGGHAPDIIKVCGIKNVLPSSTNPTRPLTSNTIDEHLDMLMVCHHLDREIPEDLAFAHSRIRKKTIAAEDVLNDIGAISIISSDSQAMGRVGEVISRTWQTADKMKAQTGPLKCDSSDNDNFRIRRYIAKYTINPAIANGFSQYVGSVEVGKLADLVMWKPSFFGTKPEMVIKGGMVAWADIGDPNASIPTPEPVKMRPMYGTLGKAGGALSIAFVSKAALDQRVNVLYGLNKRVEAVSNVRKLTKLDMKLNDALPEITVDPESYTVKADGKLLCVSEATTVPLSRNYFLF

This test concerns the target Urease (Canavalia ensiformis, UniProt P07374). As to the kind of experiment: Inhibition Assay. From the text:
In vitro inhibition assay using jack bean urease.
As for `Cc1ccc(C2CC(c3ccccc3)=Nc3ccccc3S2)cc1` (stereo unspecified) [Dihydro-1,5-benzothiazepine analog, 3], the IC50 – broadly, the concentration that inhibits the measured activity by half – came out at 24.6 µM. Regarding `O=[N+]([O-])c1ccc(C2CC(c3ccccc3)=Nc3ccccc3S2)cc1` (stereo unspecified) [Dihydro-1,5-benzothiazepine analog, 5], half-maximal inhibition (IC50) was put at 36.7 µM. On to `c1ccc(C2=Nc3ccccc3SC(c3ccccc3)C2)cc1` (stereo unspecified) [Dihydro-1,5-benzothiazepine analog, 2], for which half-maximal inhibition (IC50) required 26.3 µM. The compound `Oc1ccccc1C1CC(c2ccccc2)Sc2ccccc2N1` [2,3,4,5-Tetrahydro-1,5-benzothiazepine analog (2S,4R), 6] gave an IC50 of 91.2 µM.

In turn, `Oc1ccccc1C1CC(c2ccc(F)cc2)Sc2ccccc2N1` [2,3,4,5-Tetrahydro-1,5-benzothiazepine analog (2S,4R), 7] gave a concentration for half-maximal inhibition (IC50) of 93.7 µM. In the case of `O=COc1ccc(C2CC(c3ccccc3O)=Nc3ccccc3S2)cc1OC=O` (stereo unspecified) [Dihydro-1,5-benzothiazepine analog, 4] it was 19.1 µM.

Source of the values: BindingDB's records for doi:10.1080/14756360801945598 (Quaid-I-Azam University, 2009).
